Activity calls are given as the source filed them.
Legend:
[1] = molecular target: T1, Rac GTPase-activating protein 1 (Homo sapiens, UniProt Q9H0H5); assay: MgcRacGAP GTPase-activating activity inhibitors, confirmation, biochemical, ADP Hunter fluorescence, primary and confirmatory (AID 624330); assay type: functional
T1 sequence (Q9H0H5 whole entry): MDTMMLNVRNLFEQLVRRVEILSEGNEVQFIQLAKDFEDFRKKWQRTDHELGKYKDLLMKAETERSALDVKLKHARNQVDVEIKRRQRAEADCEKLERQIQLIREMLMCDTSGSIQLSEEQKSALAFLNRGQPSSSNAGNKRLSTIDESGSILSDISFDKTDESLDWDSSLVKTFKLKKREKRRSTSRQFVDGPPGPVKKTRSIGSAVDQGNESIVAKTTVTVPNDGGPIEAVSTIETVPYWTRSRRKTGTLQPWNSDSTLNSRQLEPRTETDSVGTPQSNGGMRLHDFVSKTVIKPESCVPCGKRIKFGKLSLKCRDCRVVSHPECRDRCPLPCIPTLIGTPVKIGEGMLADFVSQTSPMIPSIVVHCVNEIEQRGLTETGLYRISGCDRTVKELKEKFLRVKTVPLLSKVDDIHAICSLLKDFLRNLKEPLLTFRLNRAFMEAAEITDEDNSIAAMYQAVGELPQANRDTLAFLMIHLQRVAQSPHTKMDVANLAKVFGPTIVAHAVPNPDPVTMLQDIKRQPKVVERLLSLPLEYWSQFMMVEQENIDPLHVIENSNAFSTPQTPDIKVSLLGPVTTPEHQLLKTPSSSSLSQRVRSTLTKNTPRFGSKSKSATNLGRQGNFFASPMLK

[2] = tested on: Escherichia coli; assay: microbe, parasite or virus in culture
[3] = tested on: A-375; assay: MITF: Counter assay: A375 proliferation Measured in Cell-Based System Using Plate Reader - 2084-03_Inhibitor_Dose_DryPowder_Activity. [Related pubchem assays (depositor defined):AID488944]; assay type: functional; conditions: Homo sapiens
[4] = molecular target: T2, Cytochrome P450 2C9 (Homo sapiens, UniProt P11712)
T2 sequence (P11712 whole entry): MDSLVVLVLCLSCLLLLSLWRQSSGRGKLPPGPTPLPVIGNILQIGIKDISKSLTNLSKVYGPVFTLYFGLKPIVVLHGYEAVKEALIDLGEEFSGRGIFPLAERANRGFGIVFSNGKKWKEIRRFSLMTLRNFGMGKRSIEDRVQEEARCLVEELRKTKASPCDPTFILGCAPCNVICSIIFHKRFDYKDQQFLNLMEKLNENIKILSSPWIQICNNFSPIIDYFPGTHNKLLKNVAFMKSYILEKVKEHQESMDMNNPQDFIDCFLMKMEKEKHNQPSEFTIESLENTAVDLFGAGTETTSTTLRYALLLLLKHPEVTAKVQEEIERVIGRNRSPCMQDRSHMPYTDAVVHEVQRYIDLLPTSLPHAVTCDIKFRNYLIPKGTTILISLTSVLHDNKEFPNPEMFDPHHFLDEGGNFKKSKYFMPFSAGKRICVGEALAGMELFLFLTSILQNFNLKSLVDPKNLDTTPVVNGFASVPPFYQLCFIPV

[5] = tested on: A-375; assay: A375 melanoma cell viability reduction, dose response, counter-screen for MITF modulator project, cherry-pick samples, set 2 (AID 540335); assay type: functional, cell-based; conditions: Homo sapiens
[6] = molecular target: T3, Voltage-gated N-type calcium channel alpha-1B subunit/Amyloid beta A4 precursor protein-binding family A member 1 (Homo sapiens, UniProt Q00975+Q02410); assay type: protein assay
T3 sequence (Q00975 whole entry): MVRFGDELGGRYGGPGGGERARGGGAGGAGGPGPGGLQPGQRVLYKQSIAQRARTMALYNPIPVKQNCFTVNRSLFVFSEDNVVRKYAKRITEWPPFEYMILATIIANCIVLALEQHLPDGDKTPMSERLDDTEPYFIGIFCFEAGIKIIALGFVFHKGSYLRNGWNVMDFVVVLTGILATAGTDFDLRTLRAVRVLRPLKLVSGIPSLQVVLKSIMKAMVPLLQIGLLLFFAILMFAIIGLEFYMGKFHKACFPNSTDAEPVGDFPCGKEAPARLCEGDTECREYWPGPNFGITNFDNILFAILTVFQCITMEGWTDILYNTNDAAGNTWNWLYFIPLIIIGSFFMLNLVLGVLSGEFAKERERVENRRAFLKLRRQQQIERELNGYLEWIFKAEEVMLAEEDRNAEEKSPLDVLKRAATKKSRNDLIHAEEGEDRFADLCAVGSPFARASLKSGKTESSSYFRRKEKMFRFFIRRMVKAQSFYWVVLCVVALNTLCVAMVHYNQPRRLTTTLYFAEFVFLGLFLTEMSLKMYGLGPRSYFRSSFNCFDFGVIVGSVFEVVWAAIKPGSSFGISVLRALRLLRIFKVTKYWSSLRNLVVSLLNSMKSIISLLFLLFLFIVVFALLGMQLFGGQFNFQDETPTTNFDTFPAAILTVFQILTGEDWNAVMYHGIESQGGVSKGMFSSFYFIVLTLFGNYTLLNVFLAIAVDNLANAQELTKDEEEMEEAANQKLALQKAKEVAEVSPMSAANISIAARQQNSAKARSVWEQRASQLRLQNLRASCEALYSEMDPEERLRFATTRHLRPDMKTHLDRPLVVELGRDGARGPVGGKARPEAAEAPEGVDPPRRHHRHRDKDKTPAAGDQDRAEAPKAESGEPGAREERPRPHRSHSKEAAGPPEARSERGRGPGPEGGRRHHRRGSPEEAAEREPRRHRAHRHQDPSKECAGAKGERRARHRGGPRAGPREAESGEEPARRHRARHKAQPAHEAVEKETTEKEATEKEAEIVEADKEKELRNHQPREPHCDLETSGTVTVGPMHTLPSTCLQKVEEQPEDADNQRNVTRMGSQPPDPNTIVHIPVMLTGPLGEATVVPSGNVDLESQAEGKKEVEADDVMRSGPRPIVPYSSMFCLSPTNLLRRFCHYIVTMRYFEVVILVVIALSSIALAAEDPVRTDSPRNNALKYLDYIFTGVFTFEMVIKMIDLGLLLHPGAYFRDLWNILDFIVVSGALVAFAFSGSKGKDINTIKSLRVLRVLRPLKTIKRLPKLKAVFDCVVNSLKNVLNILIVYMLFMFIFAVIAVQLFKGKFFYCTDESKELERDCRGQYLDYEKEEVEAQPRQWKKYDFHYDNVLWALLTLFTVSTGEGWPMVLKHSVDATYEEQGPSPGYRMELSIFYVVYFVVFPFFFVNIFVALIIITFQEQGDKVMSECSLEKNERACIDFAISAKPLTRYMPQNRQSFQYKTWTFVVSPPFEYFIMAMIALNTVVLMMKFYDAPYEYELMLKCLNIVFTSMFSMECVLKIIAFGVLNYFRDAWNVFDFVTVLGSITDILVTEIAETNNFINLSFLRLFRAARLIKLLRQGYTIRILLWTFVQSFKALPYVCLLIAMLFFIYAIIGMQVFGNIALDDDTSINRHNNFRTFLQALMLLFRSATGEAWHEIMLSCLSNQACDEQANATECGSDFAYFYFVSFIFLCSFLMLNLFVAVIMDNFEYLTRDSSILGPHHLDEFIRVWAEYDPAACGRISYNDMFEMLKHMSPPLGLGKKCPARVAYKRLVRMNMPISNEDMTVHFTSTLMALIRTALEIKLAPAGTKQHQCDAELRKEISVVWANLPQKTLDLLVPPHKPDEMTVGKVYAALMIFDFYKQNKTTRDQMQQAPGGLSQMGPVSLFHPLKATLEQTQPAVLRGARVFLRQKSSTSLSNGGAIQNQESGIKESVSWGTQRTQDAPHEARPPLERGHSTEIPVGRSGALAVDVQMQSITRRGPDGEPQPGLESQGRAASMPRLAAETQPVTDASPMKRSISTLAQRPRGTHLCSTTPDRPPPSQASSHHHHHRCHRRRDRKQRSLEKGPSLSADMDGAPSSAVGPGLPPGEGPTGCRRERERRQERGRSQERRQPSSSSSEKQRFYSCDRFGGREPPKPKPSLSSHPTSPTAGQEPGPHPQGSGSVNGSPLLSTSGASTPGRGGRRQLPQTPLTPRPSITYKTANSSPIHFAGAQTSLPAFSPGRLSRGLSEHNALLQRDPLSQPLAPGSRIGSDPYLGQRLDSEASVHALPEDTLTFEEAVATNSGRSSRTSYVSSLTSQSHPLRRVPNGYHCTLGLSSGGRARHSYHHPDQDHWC
T3 sequence (Q02410 whole entry): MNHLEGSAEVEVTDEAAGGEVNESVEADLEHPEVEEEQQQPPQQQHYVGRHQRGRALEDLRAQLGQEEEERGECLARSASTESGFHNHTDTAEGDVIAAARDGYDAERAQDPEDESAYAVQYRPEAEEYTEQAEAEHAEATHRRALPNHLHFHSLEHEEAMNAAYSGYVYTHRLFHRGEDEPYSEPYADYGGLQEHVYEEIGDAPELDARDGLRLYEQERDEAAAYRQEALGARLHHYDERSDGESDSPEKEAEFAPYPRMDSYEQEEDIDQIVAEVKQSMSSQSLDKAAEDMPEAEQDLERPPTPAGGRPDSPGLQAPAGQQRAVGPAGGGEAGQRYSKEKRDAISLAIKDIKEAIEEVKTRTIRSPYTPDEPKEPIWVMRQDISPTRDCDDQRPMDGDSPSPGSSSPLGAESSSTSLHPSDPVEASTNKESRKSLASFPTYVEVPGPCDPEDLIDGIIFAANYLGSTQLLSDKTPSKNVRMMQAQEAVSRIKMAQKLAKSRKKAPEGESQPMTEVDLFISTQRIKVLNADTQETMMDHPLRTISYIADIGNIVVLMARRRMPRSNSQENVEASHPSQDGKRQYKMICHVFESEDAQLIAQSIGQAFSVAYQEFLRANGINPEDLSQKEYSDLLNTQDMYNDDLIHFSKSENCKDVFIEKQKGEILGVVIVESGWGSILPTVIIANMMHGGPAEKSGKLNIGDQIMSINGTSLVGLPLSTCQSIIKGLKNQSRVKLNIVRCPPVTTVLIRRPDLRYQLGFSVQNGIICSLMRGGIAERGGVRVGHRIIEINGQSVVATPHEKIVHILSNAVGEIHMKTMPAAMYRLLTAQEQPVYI

[7] = molecular target: T3, Voltage-gated N-type calcium channel alpha-1B subunit/Amyloid beta A4 precursor protein-binding family A member 1; assay type: protein assay; remark: listed apart in the source
[8] = molecular target: T4, Carboxy-terminal domain RNA polymerase II polypeptide A small phosphatase 1 (Homo sapiens, UniProt Q9GZU7); assay: inhibitors of CTDSP1, concentration-response testing, biochemical assay, absorbance-based, actives from ultra-high-throughput screening (AID 540297); assay type: functional
T4 sequence (Q9GZU7 whole entry): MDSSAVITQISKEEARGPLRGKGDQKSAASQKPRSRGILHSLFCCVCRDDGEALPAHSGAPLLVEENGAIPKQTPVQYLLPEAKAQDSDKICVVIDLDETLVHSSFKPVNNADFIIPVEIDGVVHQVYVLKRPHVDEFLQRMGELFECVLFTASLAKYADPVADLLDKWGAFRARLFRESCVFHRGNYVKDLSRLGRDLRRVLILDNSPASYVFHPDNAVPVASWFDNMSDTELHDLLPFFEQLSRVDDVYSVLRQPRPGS

[9] = molecular target: Induced myeloid leukemia cell differentiation protein Mcl-1 (Homo sapiens, UniProt Q07820); assay type: functional
Induced myeloid leukemia cell differentiation protein Mcl-1, sequence (Q07820 whole entry): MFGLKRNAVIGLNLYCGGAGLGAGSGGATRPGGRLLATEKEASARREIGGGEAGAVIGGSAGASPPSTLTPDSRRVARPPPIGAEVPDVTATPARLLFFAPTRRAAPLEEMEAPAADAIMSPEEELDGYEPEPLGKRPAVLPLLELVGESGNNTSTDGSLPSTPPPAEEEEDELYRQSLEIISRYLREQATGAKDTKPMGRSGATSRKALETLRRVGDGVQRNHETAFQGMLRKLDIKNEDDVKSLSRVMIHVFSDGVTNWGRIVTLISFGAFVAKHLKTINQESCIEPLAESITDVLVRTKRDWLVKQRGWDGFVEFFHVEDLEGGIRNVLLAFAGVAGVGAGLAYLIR

[10] = molecular target: T5, Hexokinase HKDC1 (Homo sapiens, UniProt Q2TB90); assay: HKDC1 hexokinase inhibitors, dose response, biochemical, W721R variant (AID 504729); assay type: functional
T5 sequence (Q2TB90 whole entry): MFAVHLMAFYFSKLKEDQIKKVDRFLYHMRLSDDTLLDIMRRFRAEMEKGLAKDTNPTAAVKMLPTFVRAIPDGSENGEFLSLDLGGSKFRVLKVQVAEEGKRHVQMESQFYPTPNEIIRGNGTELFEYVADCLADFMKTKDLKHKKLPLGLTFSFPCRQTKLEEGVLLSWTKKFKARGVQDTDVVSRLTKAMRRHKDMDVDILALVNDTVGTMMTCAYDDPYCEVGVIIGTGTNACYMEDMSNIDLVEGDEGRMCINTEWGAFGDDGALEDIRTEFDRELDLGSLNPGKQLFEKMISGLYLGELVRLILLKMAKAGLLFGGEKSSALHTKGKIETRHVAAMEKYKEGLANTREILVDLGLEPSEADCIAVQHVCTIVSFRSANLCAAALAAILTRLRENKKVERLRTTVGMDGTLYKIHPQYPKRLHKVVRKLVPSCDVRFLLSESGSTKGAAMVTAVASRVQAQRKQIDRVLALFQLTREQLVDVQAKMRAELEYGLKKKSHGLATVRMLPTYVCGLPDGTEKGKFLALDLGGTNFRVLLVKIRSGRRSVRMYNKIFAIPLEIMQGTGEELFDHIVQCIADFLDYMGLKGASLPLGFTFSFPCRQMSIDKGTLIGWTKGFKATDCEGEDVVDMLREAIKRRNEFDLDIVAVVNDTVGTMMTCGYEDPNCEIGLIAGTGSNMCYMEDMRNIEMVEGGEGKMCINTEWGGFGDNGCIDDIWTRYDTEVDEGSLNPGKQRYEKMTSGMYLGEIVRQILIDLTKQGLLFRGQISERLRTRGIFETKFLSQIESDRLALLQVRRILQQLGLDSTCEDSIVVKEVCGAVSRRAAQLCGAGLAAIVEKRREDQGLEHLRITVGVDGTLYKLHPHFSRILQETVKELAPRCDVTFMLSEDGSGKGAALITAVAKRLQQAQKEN

[11] = molecular target: Genome polyprotein (dengue virus type 2, UniProt P29990); assay: Dengue-2 NS5 methyltransferase inhibitors, primary screen, biochemical, confirmation dose response (AID 588689); assay type: functional
[12] = molecular target: T6, Coagulation factor XII (Homo sapiens, UniProt P00748); assay type: functional;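 also: activated factor XIIa alpha cleaving a fluorogenic AMC peptide substrate; inhibitor potency from loss of enzyme activity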
T6 sequence (P00748 whole entry): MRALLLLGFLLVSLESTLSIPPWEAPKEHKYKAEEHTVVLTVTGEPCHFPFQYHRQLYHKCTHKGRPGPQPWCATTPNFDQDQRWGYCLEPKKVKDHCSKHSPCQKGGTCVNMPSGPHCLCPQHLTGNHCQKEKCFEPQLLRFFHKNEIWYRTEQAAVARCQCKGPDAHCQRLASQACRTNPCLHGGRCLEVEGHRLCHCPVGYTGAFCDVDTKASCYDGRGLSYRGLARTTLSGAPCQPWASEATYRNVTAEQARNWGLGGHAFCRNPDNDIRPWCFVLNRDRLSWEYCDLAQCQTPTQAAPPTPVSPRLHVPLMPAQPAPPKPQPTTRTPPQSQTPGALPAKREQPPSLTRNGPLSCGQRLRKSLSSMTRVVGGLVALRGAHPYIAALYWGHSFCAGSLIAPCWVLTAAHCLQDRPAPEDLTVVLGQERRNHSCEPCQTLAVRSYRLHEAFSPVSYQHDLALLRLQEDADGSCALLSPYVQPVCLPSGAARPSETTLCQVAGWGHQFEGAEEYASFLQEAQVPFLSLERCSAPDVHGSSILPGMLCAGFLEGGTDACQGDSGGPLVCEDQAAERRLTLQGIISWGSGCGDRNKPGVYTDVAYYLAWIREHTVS

[13] = tested on: HeLa; assay: HeLa cell cytotoxicity, dose response, cytotoxicity control for MITF activator project, CellTiter-Glo luminescence, cherry-pick samples (AID 540259); assay type: functional, cell-based; conditions: Homo sapiens
[14] = cells; assay type: functional
[15] = Luminescence Cell-Based Dose Retest to Confirm Inhibitors of Cancer Stem Cells. [Related pubchem assays (depositor defined):AID2717, AID2721]; assay type: functional; conditions: Homo sapiens
[16] = molecular target: T7, Microphthalmia-associated transcription factor (Homo sapiens, UniProt O75030); assay: TRPM1 promoter luciferase signal decrease, dose response, MITF inhibitor project, cell-based, SK-MEL-5, cherry-picked, set 3 (AID 493073); assay type: functional
T7 sequence (O75030 whole entry): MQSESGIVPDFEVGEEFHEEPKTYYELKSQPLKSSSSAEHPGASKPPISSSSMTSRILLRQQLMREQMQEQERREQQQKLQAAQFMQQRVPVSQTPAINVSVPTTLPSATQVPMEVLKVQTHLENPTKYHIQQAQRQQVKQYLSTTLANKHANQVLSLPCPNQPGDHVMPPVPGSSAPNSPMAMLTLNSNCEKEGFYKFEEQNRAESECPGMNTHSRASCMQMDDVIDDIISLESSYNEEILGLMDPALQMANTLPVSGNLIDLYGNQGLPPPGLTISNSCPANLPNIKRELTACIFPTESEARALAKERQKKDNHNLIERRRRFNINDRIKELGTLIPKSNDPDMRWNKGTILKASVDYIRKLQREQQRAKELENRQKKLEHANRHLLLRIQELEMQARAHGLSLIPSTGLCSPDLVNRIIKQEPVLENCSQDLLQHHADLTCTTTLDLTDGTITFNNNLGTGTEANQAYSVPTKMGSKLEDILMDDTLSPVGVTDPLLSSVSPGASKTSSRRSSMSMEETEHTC

[17] = HepG2 cell cytotoxicity, dose response, cytotoxicity control for non-replicating M. tuberculosis project (AID 489018); assay type: functional; conditions: Mycobacterium tuberculosis
[18] = Vero E6 cell cytotoxicity, dose response, cytotoxicity control for non-replicating M. tuberculosis project, secondary assay (AID 492998); assay type: functional, VeroE6; conditions: Vero C1008
[19] = THP-1 cell cytotoxicity, dose response, cytotoxicity control for non-replicating M. tuberculosis project (AID 489025); assay type: functional
[20] = molecular target: Cytochrome P450 3A4 (Homo sapiens, UniProt P08684);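 also: CYP3A4 tested as one member of a cytochrome P450 panel screen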
Cytochrome P450 3A4, sequence (P08684 whole entry): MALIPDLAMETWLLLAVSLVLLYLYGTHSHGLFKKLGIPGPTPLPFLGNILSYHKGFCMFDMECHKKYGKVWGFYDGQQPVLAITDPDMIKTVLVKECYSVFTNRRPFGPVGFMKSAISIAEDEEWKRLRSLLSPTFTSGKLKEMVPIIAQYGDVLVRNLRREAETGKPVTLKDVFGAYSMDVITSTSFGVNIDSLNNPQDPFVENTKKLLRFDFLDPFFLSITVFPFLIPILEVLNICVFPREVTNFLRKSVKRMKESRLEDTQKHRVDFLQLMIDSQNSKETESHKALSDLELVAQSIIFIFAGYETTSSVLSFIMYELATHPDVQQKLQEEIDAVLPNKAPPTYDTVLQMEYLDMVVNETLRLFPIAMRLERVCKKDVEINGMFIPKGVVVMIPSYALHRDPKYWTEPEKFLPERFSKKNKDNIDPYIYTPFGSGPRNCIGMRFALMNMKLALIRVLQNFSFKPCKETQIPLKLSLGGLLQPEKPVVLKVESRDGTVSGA

[21] = molecular target: T2, Cytochrome P450 2C9; remark: listed apart in the source
[22] = molecular target: Cytochrome P450 2C19 (Homo sapiens, UniProt P33261); assay: Cytochrome panel assay with activity outcomes. Panel member name: p450-cyp2c19 Compounds with AC50 equal or less than 10 uM are considered active; assay type: functional; conditions: read-out: AC50
Cytochrome P450 2C19, sequence (P33261 whole entry): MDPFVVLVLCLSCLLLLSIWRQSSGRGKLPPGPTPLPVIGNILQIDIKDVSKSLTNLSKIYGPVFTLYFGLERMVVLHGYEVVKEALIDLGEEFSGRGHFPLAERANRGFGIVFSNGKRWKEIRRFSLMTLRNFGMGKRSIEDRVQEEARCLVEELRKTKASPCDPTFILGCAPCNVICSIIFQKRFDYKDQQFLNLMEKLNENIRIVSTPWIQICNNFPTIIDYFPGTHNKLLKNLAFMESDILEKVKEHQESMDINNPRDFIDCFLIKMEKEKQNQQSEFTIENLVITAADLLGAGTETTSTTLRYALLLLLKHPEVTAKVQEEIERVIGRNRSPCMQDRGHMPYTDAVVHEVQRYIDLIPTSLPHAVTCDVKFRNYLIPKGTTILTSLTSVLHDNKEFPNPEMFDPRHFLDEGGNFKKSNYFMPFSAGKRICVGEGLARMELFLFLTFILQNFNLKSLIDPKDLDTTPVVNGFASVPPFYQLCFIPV

[23] = inhibitors of intracellular T. cruzi replication, confirmation, NIH3T3 host cells, beta-gal luminescence (AID 2044); assay type: functional, cell-based;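 also: intracellular parasites grown in NIH/3T3 mouse fibroblasts as host cells; luminescent beta-galactosidase reporter signal from transgenic T. cruzi replicating inside host cells; inhibitors lower the luminescence signal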
[24] = molecular target: T8, Mannose-6-phosphate isomerase (Homo sapiens, UniProt P34949); assay: human PMI inhibitors, high substrate, primary screen, biochemical, fluorescence intensity, high mannose 6-phosphate (AID 1220)
T8 sequence (P34949 whole entry): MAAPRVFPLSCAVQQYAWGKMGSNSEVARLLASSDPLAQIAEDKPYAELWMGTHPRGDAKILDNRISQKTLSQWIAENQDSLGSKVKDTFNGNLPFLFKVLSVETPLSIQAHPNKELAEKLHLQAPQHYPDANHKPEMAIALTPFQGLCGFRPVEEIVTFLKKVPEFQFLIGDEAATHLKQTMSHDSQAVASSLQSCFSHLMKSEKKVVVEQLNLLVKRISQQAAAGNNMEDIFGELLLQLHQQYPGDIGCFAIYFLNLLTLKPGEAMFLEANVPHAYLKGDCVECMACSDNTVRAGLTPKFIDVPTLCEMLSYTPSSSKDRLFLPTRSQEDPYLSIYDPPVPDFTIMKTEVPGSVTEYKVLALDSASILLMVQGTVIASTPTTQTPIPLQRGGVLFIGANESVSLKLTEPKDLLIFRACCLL

[25] = cytotoxicity toward NIH3T3 fibroblasts, dose response, counter-screen, cell-based, ATP luminescence, mouse fibroblasts (AID 2010); assay type: functional;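 also: cells exposed to compound for about 90 hours before reading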

CC(C)C(=O)Nc1ccc(Nc2ccccc2)cc1
IC50 [1]: 51.1 µM (active)
AC50 [2]: 29.9 µM (active)

O=C(NCC1CCCO1)c1cc(-c2ccc(Cl)cc2Cl)on1 (centres undefined)
AC50 [3]: > 11 µM (active)
AC50 [4]: inconclusive
AC50 [5]: > 11 µM (active)

CCC1=NN2C(=N)/C(=C\c3ccc(OCc4cc(=O)n5nc(CC)sc5n4)c(OC)c3)C(=O)N=C2S1
IC50 [6]: > 56.8 µM (not active)
IC50 [7]: > 50 µM (inactive)
IC50 [8]: 5.99 µM (active)
IC50 [9]: 2.95 µM (active)
IC50 [10]: 41.1 µM (inactive)
IC50 [11]: 61.9 µM (active)

O=C(O)c1ccc(NCc2nc3ccccc3n2Cc2ccccc2)cc1
IC50 [12]: > 50 µM (inactive)

Cc1ccc2c(Cl)c(C(=O)Nc3cccnc3)sc2c1
AC50 [13]: 46.7 µM (active)

CC1CCCC(NCC(O)COC(c2ccc(F)cc2)c2ccc(F)cc2)C1C (centres undefined)
IC50 [14]: 11.4 µM (active)
AC50 [15]: 6.35 µM (active)
AC50 [16]: 10.8 µM (active)
CC50 [17]: 16.1 µM (active)
CC50 [18]: > 20 µM (active)
AC50 [5]: 20.2 µM (active)
CC50 [19]: 15.8 µM (active)

Cc1cnc(CNc2cc(-c3ccccc3Cl)ncn2)cn1
AC50 [20]: inconclusive

CCN(c1ccccc1)S(=O)(=O)c1ccc(C(=O)Nc2nnc(COC)o2)cc1
IC50 [12]: > 50 µM (inactive)

CC(C)c1ccc(OCC(=O)N2CCN(C)CC2)c(Br)c1
AC50 [2]: 57.9 µM (active)

CCCC(=O)Nc1nc2nc(-c3ccccc3)cc(-c3ccccc3)n2n1
AC50 [21]: 0.0112 µM (inconclusive)
AC50 [22]: 11.2 µM (inconclusive)
AC50 [20]: inconclusive

CC(=O)/N=C(\N)Nc1nc2cc(C)ccc2o1
AC50 [3]: > 35 µM (active)
AC50 [5]: > 35 µM (active)

CCO/C(O)=C(/C)C1=NC(C)(C)Cc2ccccc21
EC50 [23]: 10.7 µM (active)
IC50 [12]: > 50 µM (inactive)
IC50 [24]: 37.9 µM (active)
EC50 [25]: > 60 µM (not active)

C/C(=N\Nc1ccccn1)c1ccc(C(C)C)cc1
AC50 [13]: 46.7 µM (active)

COc1cccc(-c2cc(O)c3cc(NC(C)=O)ccc3n2)c1
AC50 [2]: 28.2 µM (active)

From ChEMBL document CHEMBL1201862, “PubChem BioAssay data set” (2004)
